Results as given in ChEMBL document CHEMBL1152156, “A bulge binding agent with novel wedge-shape topology for stimulation of DNA triplet repeat strand slippage synthesis” (Bioorg Med Chem Lett, 2008).
Calls of active or inactive are those of the source. The calls are words filed in the database; no cut-off is given here.

What was measured:
[1] = Stimulation of DNA triplet repeat slippage synthesis using p33-labeled (ATT)3 and unlabeled (AAT)5 template assessed as number of base pairs
[2] = Stimulation of DNA triplet repeat slippage synthesis using p33-labeled (ATT)3 and unlabeled (AAT)5 template assessed as number of base pairs at 400 uM
[3] = Stimulation of DNA triplet repeat slippage synthesis using p33-labeled (ATT)3 and unlabeled (AAT)5 template assessed as number of base pairs at 100 uM
[4] = Stimulation of DNA triplet repeat slippage synthesis using p33-labeled (ATT)3 and unlabeled (AAT)5 template assessed as number of base pairs at 50 uM
[5] = Stimulation of DNA triplet repeat slippage synthesis using p33-labeled (ATT)3 and unlabeled (AAT)5 template at 100 uM in presence of doxorubicin
[6] = Binding affinity to double strand DNA by surface plasmon resonance based assay
[7] = Stimulation of DNA triplet repeat slippage synthesis using p33-labeled (ATT)3 and unlabeled (AAT)5 template assessed as number of base pairs at 200 uM
[8] = Binding affinity to ATT-bulge-DNA by surface plasmon resonance based assay
[9] = Binding affinity to hairpin DNA by surface plasmon resonance based assay

SMILES	Activity [1]	Activity [2]	Activity [3]	Activity [4]	Activity [5]	Kd [6] [µM]	Activity [7]	Ki [8] [µM]	Kd [9] [µM]	Activity [8]
N[C@H]1[C@H](O[C@H]2C[C@H]3C(=O)c4cc5ccccc5cc4[C@H]3[C@@]23C(=O)CCc2ccccc23)O[C@H](CO)[C@@H](O)[C@@H]1O	Active									
OC[C@H]1O[C@@H](OCCN2c3ccccc3Sc3ccccc32)[C@H](O)[C@@H](O)[C@@H]1O		71	20	18	inactive	170	32	41.5	140	
c1ccc2c(c1)Nc1ccccc1S2	inactive									inactive
